How the values were obtained:
Type in all cases: in vivo
Chenopodium album = experiment: Test Example 3: herbicidal effect test by soil application in upland field; conditions: 120 g per 10 ares, sprayed one day after sowing, 14 days after application, read-out: weed inhibition rate
Method in brief: (§1)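 Weed inhibition (%) was assessed 14 days after treatment, in duplicate per concentration group. Seeds had been mixed into the upper 1 cm of upland alluvial loam, and the soil surface was sprayed one day later with the diluted emulsifiable concentrate at 120 g active ingredient per 10 ares.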

Echinochloa crus-galli = experiment: as above; conditions: Echinochloa crus-galli, 120 g per 10 ares, sprayed one day after sowing, 14 days after application, read-out: weed inhibition rate
Method in brief: as §1

Digitaria ciliaris [1] = experiment: as above; conditions: Digitaria ciliaris, 120 g per 10 ares, sprayed one day after sowing, 14 days after application, read-out: weed inhibition rate
Method in brief: as §1

Amaranthus viridis = experiment: as above; conditions: Amaranthus viridis, 120 g per 10 ares, sprayed one day after sowing, 14 days after application, read-out: weed inhibition rate
Method in brief: as §1

[2] = system: Echinochloa crus-galli var. formosensis; experiment: Test Example 1: herbicidal effect test by soil application in paddy rice; conditions: Echinochloa crus-galli, soil, 336 h; 120 g active ingredient per 10 ares; applied immediately after sowing, flooded pots; 14 days after application; read-out: weed inhibition rate
Method in brief: (§2)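 Flooded-pot paddy assay: sow at 0–1 cm, flood to about 3 cm, then apply diluted emulsifiable concentrate by dropper, 120 g a.i. per 10 ares; greenhouse-grown.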

Scirpus juncoides [3] = experiment: as above; conditions: Schoenoplectiella juncoides, soil, 336 h; 120 g active ingredient per 10 ares; applied immediately after sowing, flooded pots; 14 days after application; read-out: weed inhibition rate
Method in brief: as §2

Digitaria ciliaris [4] = experiment: Test Example 4: herbicidal effect test by stem and leaf treatment in upland field; conditions: Digitaria ciliaris; 120 g per 10 ares; sprayed seven days after sowing, upland soil; 14 days after application; read-out: weed inhibition rate
Monochoria vaginalis [5] = experiment: Test Example 6: herbicidal effect test by application during growth period of paddy rice (low dose); conditions: Pontederia vaginalis; 7.5 g per 10 ares; applied seven days after sowing, flooded pots; 14 days after application; read-out: weed inhibition rate
Method in brief: (§3)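 Puddled, fertilised paddy soil was sown with 30 seeds per species and flooded to about 3 cm. After 7 days in a glass greenhouse, the diluted emulsifiable concentrate went into the water by dropper at 7.5 g/10 a. Effect scored at 14 days.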

Scirpus juncoides [6] = experiment: as above; conditions: Schoenoplectiella juncoides; 7.5 g per 10 ares; applied seven days after sowing, flooded pots; 14 days after application; read-out: weed inhibition rate
Method in brief: as §3

Lindernia pyxidaria = experiment: Test Example 1: herbicidal effect test by soil application in paddy rice; conditions: 336 h, 120 g active ingredient per 10 ares, applied immediately after sowing, flooded pots, 14 days after application, read-out: weed inhibition rate
Method in brief: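 Inhibition rate (%) read 14 days after treatment, duplicate pots. Water-diluted emulsifiable concentrate was applied by dropper at 120 g active ingredient/10 ares right after sowing. Seeds (30 per species, 0–1 cm deep) went into puddled paddy soil kept flooded at about 3 cm in a greenhouse.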

Monochoria vaginalis [7] = experiment: Test Example 5: herbicidal effect test by soil application in paddy rice (low dose); conditions: Pontederia vaginalis, 336 h, 7.5 g per 10 ares, applied immediately after sowing, flooded pots, 14 days after application, read-out: weed inhibition rate
Method in brief: (§4)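 Pots of puddled, fertilized paddy soil receive 30 seeds per species at 0–1 cm depth and are flooded to about 3 cm. The diluted emulsifiable concentrate is then dropped onto the water, delivering 7.5 g active ingredient per 10 ares. Greenhouse grown; herbicidal effect scored 14 days later, two replicates.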

Scirpus juncoides [8] = experiment: as above; conditions: Schoenoplectiella juncoides, 336 h, 7.5 g per 10 ares, applied immediately after sowing, flooded pots, 14 days after application, read-out: weed inhibition rate
Method in brief: as §4

CC(C)[C@]12C[C@@H](OCc3ccccc3F)[C@](C)(CC1OCC1CC1)O2 (mixture of isomers) [1-921, (1S,2R,4R,SR)-5-(cyclopropylmethoxy)-2-[(2-fluorophenyl)methoxy]-1-methyl-4-isopropyl-7-oxabicyclo[2.2.1]heptane]
≥ 80%: inhibition at 1200 g/ha (Chenopodium album) | inhibition at 1200 g/ha (Echinochloa crus-galli) | inhibition at 1200 g/ha (Digitaria ciliaris [1]) | inhibition at 1200 g/ha (Amaranthus viridis) | pest or weed control at 1200 g/ha [2] | pest or weed control at 1200 g/ha (Scirpus juncoides [3]) | inhibition at 1200 g/ha (Digitaria ciliaris [4]) | inhibition at 75 g/ha (Monochoria vaginalis [5]) | inhibition at 75 g/ha (Scirpus juncoides [6]) | pest or weed control at 1200 g/ha (Lindernia pyxidaria) | inhibition at 75 g/ha (Monochoria vaginalis [7]) | inhibition at 75 g/ha (Scirpus juncoides [8])

CC(C)[C@]12C=C[C@](C)(O1)C(OCc1ccccc1F)C2 (mixture of isomers) [3-5, (1R,4S,SR)-5-[(2-fluorophenyl)methoxy]-4-methyl-1-isopropyl-7-oxabicyclo[2.2.1]hept-2-ene]
≥ 80%: inhibition at 1200 g/ha (Chenopodium album) | inhibition at 1200 g/ha (Echinochloa crus-galli) | inhibition at 1200 g/ha (Digitaria ciliaris [1]) | inhibition at 1200 g/ha (Amaranthus viridis) | pest or weed control at 1200 g/ha [2] | pest or weed control at 1200 g/ha (Scirpus juncoides [3]) | inhibition at 1200 g/ha (Digitaria ciliaris [4]) | inhibition at 75 g/ha (Monochoria vaginalis [5]) | inhibition at 75 g/ha (Scirpus juncoides [6]) | pest or weed control at 1200 g/ha (Lindernia pyxidaria) | inhibition at 75 g/ha (Scirpus juncoides [8])

CC(C)[C@]12C[C@@H](OCc3c(F)cccc3F)[C@](C)(C[C@@H]1F)O2 [1-7, (1S,2R,4R,5S)-2-((2,6-difluorobenzyl)oxy)-5-fluoro-4-isopropyl-1-methyl-7-oxabicyclo[2.2.1]heptane]
≥ 80%: inhibition at 1200 g/ha (Chenopodium album) | inhibition at 1200 g/ha (Echinochloa crus-galli) | inhibition at 1200 g/ha (Digitaria ciliaris [1]) | inhibition at 1200 g/ha (Amaranthus viridis) | pest or weed control at 1200 g/ha [2] | pest or weed control at 1200 g/ha (Scirpus juncoides [3]) | inhibition at 1200 g/ha (Digitaria ciliaris [4]) | inhibition at 75 g/ha (Monochoria vaginalis [5]) | pest or weed control at 1200 g/ha (Lindernia pyxidaria) | inhibition at 75 g/ha (Scirpus juncoides [8])

C=CCO[C@@H]1C[C@]2(C)O[C@@]1(C(C)C)C[C@H]2OCc1ccccc1F [1-930, (1S,2R,4R,5R)-2-[(2-fluorophenyl)methoxy]-1-methyl-4-isopropyl-5-prop-2-enoxy-7-oxabicyclo[2.2.1]heptane]
≥ 80%: inhibition at 1200 g/ha (Chenopodium album) | inhibition at 1200 g/ha (Echinochloa crus-galli) | inhibition at 1200 g/ha (Digitaria ciliaris [1]) | inhibition at 1200 g/ha (Amaranthus viridis) | pest or weed control at 1200 g/ha [2] | pest or weed control at 1200 g/ha (Scirpus juncoides [3]) | inhibition at 1200 g/ha (Digitaria ciliaris [4]) | inhibition at 75 g/ha (Monochoria vaginalis [5]) | inhibition at 75 g/ha (Scirpus juncoides [6]) | pest or weed control at 1200 g/ha (Lindernia pyxidaria) | inhibition at 75 g/ha (Monochoria vaginalis [7]) | inhibition at 75 g/ha (Scirpus juncoides [8])

C#CCO[C@@H]1C[C@]2(C)O[C@@]1(C(C)C)C[C@H]2OCc1ccccc1F [1-931, (1S,2R,4R,5R)-2-[(2-fluorophenyl)methoxy]-1-methyl-4-isopropyl-5-prop-2-ynoxy-7-oxabicyclo[2.2.1]heptane]
≥ 80%: inhibition at 1200 g/ha (Chenopodium album) | inhibition at 1200 g/ha (Echinochloa crus-galli) | inhibition at 1200 g/ha (Digitaria ciliaris [1]) | inhibition at 1200 g/ha (Amaranthus viridis) | pest or weed control at 1200 g/ha [2] | pest or weed control at 1200 g/ha (Scirpus juncoides [3]) | inhibition at 1200 g/ha (Digitaria ciliaris [4]) | inhibition at 75 g/ha (Monochoria vaginalis [5]) | inhibition at 75 g/ha (Scirpus juncoides [6]) | pest or weed control at 1200 g/ha (Lindernia pyxidaria) | inhibition at 75 g/ha (Monochoria vaginalis [7]) | inhibition at 75 g/ha (Scirpus juncoides [8])

Cc1ccccc1CO[C@@H]1C[C@]2(C(C)C)O[C@@]1(C)CC2=O [2-3, (1R,4S,5R)-1-isopropyl-4-methyl-5-((2-methylbenzyl)oxy)-7-oxabicyclo[2.2.1]heptan-2-one]
≥ 80%: inhibition at 1200 g/ha (Chenopodium album) | inhibition at 1200 g/ha (Echinochloa crus-galli) | inhibition at 1200 g/ha (Digitaria ciliaris [1]) | pest or weed control at 1200 g/ha [2] | pest or weed control at 1200 g/ha (Scirpus juncoides [3]) | inhibition at 1200 g/ha (Digitaria ciliaris [4]) | inhibition at 75 g/ha (Monochoria vaginalis [5]) | inhibition at 75 g/ha (Scirpus juncoides [6]) | pest or weed control at 1200 g/ha (Lindernia pyxidaria) | inhibition at 75 g/ha (Monochoria vaginalis [7]) | inhibition at 75 g/ha (Scirpus juncoides [8])

C=C1C[C@]2(C)O[C@@]1(C(C)C)C[C@H]2OCc1ccccc1C [2-72, (1R,4S,5R)-1-isopropyl-4-methyl-5-((2-methylbenzyl)oxy)-2-methylene-7-oxabicyclo[2.2.1]heptane]
≥ 80%: inhibition at 1200 g/ha (Chenopodium album) | inhibition at 1200 g/ha (Echinochloa crus-galli) | inhibition at 1200 g/ha (Digitaria ciliaris [1]) | inhibition at 1200 g/ha (Amaranthus viridis) | pest or weed control at 1200 g/ha [2] | pest or weed control at 1200 g/ha (Scirpus juncoides [3]) | inhibition at 1200 g/ha (Digitaria ciliaris [4]) | inhibition at 75 g/ha (Monochoria vaginalis [5]) | inhibition at 75 g/ha (Scirpus juncoides [6]) | pest or weed control at 1200 g/ha (Lindernia pyxidaria) | inhibition at 75 g/ha (Monochoria vaginalis [7])

C=C1C[C@]2(C)O[C@@]1(C(C)C)C[C@H]2OCc1ccccc1F [2-88, (1R,4S,5R)-5-((2-fluorobenzyl)oxy)-1-isopropyl-4-methyl-2-methylene-7-oxabicyclo[2.2.1]heptane]
≥ 80%: inhibition at 1200 g/ha (Chenopodium album) | inhibition at 1200 g/ha (Echinochloa crus-galli) | inhibition at 1200 g/ha (Digitaria ciliaris [1]) | inhibition at 1200 g/ha (Amaranthus viridis) | pest or weed control at 1200 g/ha [2] | pest or weed control at 1200 g/ha (Scirpus juncoides [3]) | inhibition at 1200 g/ha (Digitaria ciliaris [4]) | inhibition at 75 g/ha (Monochoria vaginalis [5]) | inhibition at 75 g/ha (Scirpus juncoides [6]) | pest or weed control at 1200 g/ha (Lindernia pyxidaria) | inhibition at 75 g/ha (Monochoria vaginalis [7]) | inhibition at 75 g/ha (Scirpus juncoides [8])

CC(C)[C@]12C[C@@H](OCc3ccc(F)cc3)[C@](C)(CC1=O)O2 [2-349, (1R,4S,5R)-5-((4-fluorobenzyl)oxy)-1-isopropyl-4-methyl-7-oxabicyclo[2.2.1]heptan-2-one]
≥ 80%: inhibition at 1200 g/ha (Chenopodium album) | inhibition at 1200 g/ha (Echinochloa crus-galli) | inhibition at 1200 g/ha (Digitaria ciliaris [1]) | inhibition at 1200 g/ha (Amaranthus viridis) | pest or weed control at 1200 g/ha [2] | pest or weed control at 1200 g/ha (Scirpus juncoides [3]) | inhibition at 1200 g/ha (Digitaria ciliaris [4]) | pest or weed control at 1200 g/ha (Lindernia pyxidaria)

Source: patent EP4707280A1, “1,4-CINEOLE DERIVATIVE AND INTERMEDIATE THEREOF, HERBICIDE CONTAINING SAID DERIVATIVE AS ACTIVE INGREDIENT, METHOD FOR USING HERBICIDE, AND METHOD FOR PREPARING AGROCHEMICAL COMPOSITION” (HOKKO CHEMICAL INDUSTRY CO., LTD., priority 2023, dated 2024)
